Results on 78 compounds are retold here after PubChem BioAssay AID720589 (Broad Institute, 2013).

Where only a bound is given, the exact number is not on record here.

In this experiment the test system is HepG2 viability, ATP luminescence (CellTiter-Glo), 72 h. Put plainly: ATP-based viability loss in HepG2 cells – cell-based, CellTiter-Glo luminescence, cherry-pick, set 3, cytotoxicity control, dose response (AID 720589). A general note: Cellular ATP, detected with luciferase, serves as a proxy for viable cell number.
Consider `C[C@@H]1O[C@@H](O[C@H]2C[C@@H](O)[C@]3(CO)[C@H]4[C@H](O)C[C@]5(C)[C@@H](C6COC(=O)C6)CC[C@]5(O)[C@@H]4CC[C@]3(O)C2)[C@H](O)[C@H](O)[C@H]1O` (stereo partly drawn), for which the AC35 was 2.62 µM.

In the case of `C[C@@H]1CN([C@H](C)CO)S(=O)(=O)c2ccc(C#CC(C)(C)O)cc2O[C@H]1CN(C)Cc1ccc(-c2ccccc2)cc1`, the AC35 was 6.19 µM.

As to `CN1C2CCC1/C(=C/c1ccccn1)C(=O)/C2=C\c1ccccn1`, the AC35 is 1.27 µM.

In the case of `O=C1NC(=O)N(Cc2ccc(F)cc2)C(=O)/C1=C\C=C\c1ccco1`, the AC35 was 9.05 µM.

In the case of `Cc1ccc(/C=C2\SC(=S)N(CCCC(=O)NNC(=O)c3ccccc3O)C2=O)cc1`, the AC35 is 16.9 µM.

Consider `COc1ccc(S(=O)(=O)Nc2cccc3c2O[C@H](CN(C)Cc2ccc(C(=O)Nc4ccccc4N)cc2)[C@H](C)CN([C@@H](C)CO)C3=O)cc1`, for which the AC35 was 4.44 µM.

For the compound `COc1ccc(/C=C/C(=O)c2cc(F)ccc2OC(=O)c2ccccc2OC)cc1OC`, the AC35 was 13.9 µM.

With `OC[C@H]1O[C@@H](n2cnc3c(NCc4ccco4)ncnc32)[C@H](O)[C@@H]1O`, the AC35 is 12.1 µM.

With `C[C@@H]1CN([C@H](C)CO)C(=O)Cc2cc(NC(=O)CCCCCC(=O)Nc3ccccc3N)ccc2O[C@@H]1CN(C)CC1CCCCC1`, the AC35 is 1.93 µM.

Consider `N#CC(=C1C=CC(=NO)C(Cl)=C1)c1ccccc1`, for which the AC35 was 2.66 µM.

As for `CN(C)c1ccc(C=c2c3ccccc3n3c2c2c([n+]3C)CCCC2)cc1`, the AC35 is 2.14 µM.

On to `C[C@@H]1CN([C@H](C)CO)C(=O)c2cccc(N(C)C)c2O[C@@H]1CN(C)Cc1ccc(C(=O)Nc2ccccc2N)cc1`, for which the AC35 was 3.05 µM.

With `COc1cc2c(OC(C)=O)c3c(c(-c4ccc5c(c4)OCO5)c2cc1OC)C(=O)OC3`, the AC35 was 0.465 µM.

For `C[C@@H]1CN([C@@H](C)CO)C(=O)c2cc(NS(=O)(=O)c3ccccc3)ccc2O[C@@H]1CN(C)Cc1ccc(C(=O)Nc2ccccc2N)cc1`, the AC35 is 7.52 µM.

As to `C=C(C(=O)c1ccccc1)C(C)C(=C)C(=O)c1ccccc1`, the AC35 is 10.2 µM.

With `COC(=O)C1=C(C)N(Cc2cccc(C(F)(F)F)c2)C(=NCc2ccc(OC)cc2)NC1c1cccc(F)c1` (stereo not drawn), the AC35 was 7.37 µM.

On to `C[C@H](CO)N1C[C@H](C)[C@H](CN(C)Cc2ccc(C(=O)Nc3ccccc3N)cc2)Oc2ccc(N(C)C)cc2CC1=O`, for which the AC35 was 0.19 µM.

Take `Cc1c(CC(=O)NCCCC(=O)O)c(=O)oc2cc3c(cc12)CCC(C)(C)O3`: the AC35 is 16.3 µM.

Consider `Cc1ccc(S(=O)(=O)Nc2ccc3c(c2)C(=O)N([C@H](C)CO)C[C@H](C)[C@@H](CN(C)Cc2ccc(C(F)(F)F)cc2)OCCCC[C@H](C)O3)cc1`, for which the AC35 was 10 µM.

`C[C@H]1CCCCO[C@H](CN(C)Cc2ccc(C(F)(F)F)cc2)[C@@H](C)CN([C@@H](C)CO)C(=O)c2cc(NC(=O)Nc3ccccc3)ccc2O1`: the AC35 is 22.4 µM.

As for `CN(C)c1ccc(N=Nc2nc3ccccc3n2C)cc1`, the AC35 is 12 µM.

For the compound `C[C@@H]1CCCCO[C@H](CN(C)Cc2ccc(C(=O)Nc3ccccc3N)cc2)[C@@H](C)CN([C@H](C)CO)C(=O)c2cc(NS(=O)(=O)c3ccc(Cl)cc3)ccc2O1`, the AC35 was 9.81 µM.

In the case of `C[C@@H]1CCCCO[C@H](CN(C)Cc2ccc(C(=O)Nc3ccccc3N)cc2)[C@@H](C)CN([C@@H](C)CO)C(=O)c2cc(NS(=O)(=O)c3ccc(Cl)cc3)ccc2O1`, the AC35 was 8.5 µM.

Consider `CCOc1cc2[nH]c(=S)n(Cc3ccc(C(=O)NCCN(CC)CC)cc3)c(=O)c2cc1OCC`, for which the AC35 was 15.8 µM.

Consider `O=C(N/N=C/c1cnc(N2CCCCC2)s1)c1ccc(C(F)(F)F)cc1`, for which the AC35 was 14.1 µM.

As to `CC(=O)Nc1ccc(S(=O)(=O)Nc2ccc(N3CCCCC3)cc2)cc1`, the AC35 is 19.2 µM.

Take `Cc1ccc(C)c(S(=O)(=O)N2CCN(c3ncnc4sccc34)CC2)c1`: the AC35 is 4.76 µM.

For the compound `CCCCCCCCCCCCCCCCn1cc[n+](C)c1`, the AC35 is 4.54 µM.

`CCCCc1c(Cc2ccccc2)ncn1CCc1ccccc1OC`: the AC35 was 13.5 µM.

On to `Cc1ccc(OCCNC(=O)c2cccc(S(=O)(=O)NCc3ccccc3)c2)cc1`, for which the AC35 is 19.3 µM.

With `CC(C)(C)[S@](=O)N1Cc2cc(C(=O)NCC(F)(F)F)nc(-c3cccc(-c4cccc(F)c4)c3)c2[C@@H]1CCO`, the AC35 is 0.139 µM.

Consider `Cc1cc(-c2nc3cc(F)ccc3s2)ccc1N`, for which the AC35 is 0.0938 µM.

For the compound `CC(=O)OC1CC(OC2C(O)CC(OC3C(O)CC(OC4CCC5(C)C(CCC6C5CCC5(C)C(C7=CC(=O)OC7)C(O)CC65O)C4)OC3C)OC2C)OC(C)C1OC1OC(CO)C(O)C(O)C1O` (stereo not drawn), the AC35 is 0.475 µM.

Consider `C[C@H](CO)N1C[C@H](C)[C@H](CN(C)Cc2ccc(C(=O)Nc3ccccc3N)cc2)Oc2ccc(N(C)C)cc2C1=O`, for which the AC35 was 18.2 µM.

`C[C@H](CO)N1C[C@H](C)[C@H](CN(C)Cc2ccc(C(=O)Nc3ccccc3N)cc2)Oc2c(cccc2N(C)C)C1=O`: the AC35 was 0.615 µM.

As to `CCCCOc1ccc(NC(=O)C(=O)NCCCn2ccnc2)cc1`, the AC35 is 13.7 µM.

Turning to `COc1ccc(S(=O)(=O)Nc2ccc3c(c2)C(=O)N([C@H](C)CO)C[C@@H](C)[C@@H](CN(C)CC2CCCCC2)OCCCC[C@H](C)O3)cc1`, the AC35 was 12.2 µM.

As to `O=C1c2ccccc2C(=O)c2cc(N3CCCCC3)ccc21`, the AC35 is 12.5 µM.

Take `CCCCCCCCNC(C)C(O)c1ccc(SC(C)C)cc1` (stereo not drawn): the AC35 is 12.9 µM.

`CN(C)c1ccc(/C=N/Nc2nc3ccccc3o2)cc1`: the AC35 was 18.2 µM.

On to `CN=c1scc(-c2cccs2)n1/N=C/c1ccccc1O`, for which the AC35 is 20.8 µM.

In the case of `C/C(=N\NC(=O)c1n[nH]c2c1CCC2)c1cccs1`, the AC35 was 15.6 µM.

Take `COc1cccc(O)c1CN1CCC(C(=O)Nc2ccc(-c3cccc(C)c3)cc2)CC1`: the AC35 is 10.4 µM.

Regarding `COc1ccc2cc(C(N)=O)/c(=N\NC(=O)c3ccccc3)oc2c1`, the AC35 is 17.2 µM.

Turning to `CN(Cc1cnc2nc(N)nc(N)c2n1)c1ccc(C(=O)N[C@@H](CCC(=O)O)C(=O)O)cc1`, the AC35 was 0.0224 µM.

Regarding `Nc1ccn([C@@H]2O[C@H](CO)[C@@H](O)C2O)c(=O)n1` (stereo partly drawn), the AC35 is 0.477 µM.

In the case of `Cc1nc(N)nc(N)c1-c1ccc(Cl)c(Cl)c1`, the AC35 is 0.557 µM.

Consider `C[C@H]1CN([C@@H](C)CO)C(=O)c2cc(N(C)C)ccc2O[C@H]1CN(C)Cc1ccc(C(=O)Nc2ccccc2N)cc1`, for which the AC35 is 0.298 µM.

For `CC12CCC3C(CCC4(O)CC(O)CCC34C=NO)C1(O)CCC2C1=COC(=O)C1` (stereo not drawn), the AC35 is 0.155 µM.

`COC1C(O)C(C)OC(OC2C(Oc3cccc4c(O)c5c(=O)oc6ccc(C)c7c(=O)oc(c34)c5c67)OC(C)C(O)C2O)C1O` (stereo not drawn): the AC35 is 14.3 µM.

For the compound `C[C@H]1CN([C@@H](C)CO)C(=O)c2cc(NS(=O)(=O)c3ccc(Cl)cc3)ccc2O[C@H]1CN(C)Cc1ccc(C(=O)Nc2ccccc2N)cc1`, the AC35 was 7.39 µM.

As to `COc1ccccc1-c1ccc(OCCCN2CCC(C(O)(c3ccccc3)c3ccccc3)CC2)cc1`, the AC35 is 7.47 µM.

For the compound `Oc1cccc(-c2nnc(-c3cccc(O)c3)nn2)c1`, the AC35 is 17.5 µM.

For the compound `COc1ccccc1C(CCNCc1ccc(N(C)C)cc1)c1ccc(OC(C)C)cc1` (stereo not drawn), the AC35 was 4.74 µM.

Turning to `CCc1ccc(/C=C2\SC(=S)N(CCCC(=O)NCCCN3CCOCC3)C2=O)cc1`, the AC35 was 10.8 µM.

For the compound `CCOc1ccc2nc(NC3=NC(c4ccc(OC)cc4)CC(=O)N3)nc(C)c2c1` (stereo not drawn), the AC35 is 10.2 µM.

As for `O=C(N/N=C/c1cccs1)c1n[nH]c2c1CCCC2`, the AC35 was 17.7 µM.

In the case of `C[C@H](CO)N1C[C@H](C)[C@H](CN(C)CC2CCCCC2)Oc2ccc(NC(=O)Nc3cccc4ccccc34)cc2C1=O`, the AC35 is 14.9 µM.

With `CN(C[C@H]1N[C@@H](CO)[C@@H]1c1ccc(C2=CCCC2)cc1)C(=O)c1cccc(F)c1`, the AC35 is 2.88 µM.

`C[C@@H]1CCCCO[C@H](CN(C)Cc2ccc(C(=O)Nc3ccccc3N)cc2)[C@@H](C)CN([C@H](C)CO)C(=O)c2cc(NS(=O)(=O)c3ccc(F)cc3)ccc2O1`: the AC35 is 10.4 µM.

On to `NC(Cc1ccc(C(F)(F)F)cc1)c1csc(NC(=O)Nc2ccccc2Cc2ccccc2)n1` (stereo not drawn), for which the AC35 is 12.4 µM.

Consider `Cc1cc2sc3ccc(C#CC4(O)CCCCC4)cc3c(=O)c2cc1C`, for which the AC35 is 21.6 µM.

Consider `CC(C)CC#Cc1ccc([C@@H]2[C@@H](CO)N3CCCCN(S(=O)(=O)c4ccc(F)cc4)C[C@H]23)cc1`, for which the AC35 is 12.7 µM.

For `C/C(=C\c1ccccc1)C(=O)N1CCC=CC1=O`, the AC35 was 4.88 µM.

`O=C1NC(=O)N(c2ccccc2)C(=O)/C1=C\C=C\c1ccccc1`: the AC35 was 5.21 µM.

In the case of `CC1(C)N=C(N)N=C(N)N1c1ccc(CCCCc2ccccc2)cc1`, the AC35 is 2.08 µM.

With `C[C@@H]1CN([C@@H](C)CO)S(=O)(=O)c2ccc(C#CC(C)(C)O)cc2O[C@H]1CN(C)Cc1ccc(-c2ccccc2)cc1`, the AC35 was 6.19 µM.

As to `C[C@]12CC[C@H](O)C[C@H]1CC[C@@H]1[C@@H]2CC[C@]2(C)[C@@H](C3=CC(=O)OC3)CC[C@]12O`, the AC35 was 2.6 µM.

Turning to `C[C@H]1CN([C@@H](C)CO)S(=O)(=O)c2ccc(C#Cc3ccncc3)cc2O[C@@H]1CN(C)C(=O)Nc1ccc2c(c1)OCO2`, the AC35 was 0.902 µM.

With `N=c1ccn2c(n1)O[C@H]1[C@H](O)[C@@H](CO)O[C@H]12`, the AC35 was 1.37 µM.

As for `CCN1/C(=C/C=C/c2oc3ccc(-c4ccccc4)cc3[n+]2CC)Oc2ccc(-c3ccccc3)cc21`, the AC35 was 2.37 µM.

Regarding `CCc1ccc(/C=C2\SC(=S)N(CCCC(=O)N3CCN(C)CC3)C2=O)cc1`, the AC35 was 8.6 µM.

Turning to `O=c1c2ccccc2nc(/C=C/c2cc(Br)ccc2O)n1CCCO`, the AC35 was 6.52 µM.

For the compound `C=C1C(=O)O[C@@H]2[C@H]1[C@@H](OC(=O)/C(C)=C/C)C/C(C)=C\C(=O)/C=C(\C)[C@@H]2O`, the AC35 was 12.5 µM.

Regarding `C[C@@H]1O[C@@H](O[C@H]2C[C@@H](O)[C@]3(CO)[C@@H]4C(CC[C@]3(O)C2)[C@@]2(O)CC[C@H](C3COC(=O)C3)[C@@]2(C)C[C@H]4O)[C@H](O)[C@H](O)[C@H]1O` (stereo partly drawn), the AC35 was 1.47 µM.

For `Cc1nc(N)nc(N)c1/C=C/C(C)(C)c1ccc(Cl)cc1`, the AC35 is less than 0.011 µM.

`COC1C(C)OC(OC2CC(C)(O)Cc3cc4c(c(O)c32)C(=O)c2c(O)cc3c(c2C4=O)OC2OC3(C)C(O)C(N(C)C)C2O)C(OC)C1(C)OC` (stereo not drawn): the AC35 is 0.133 µM.

Take `CN=c1scc(-c2ccccc2F)n1/N=C/c1ccc[nH]1`: the AC35 is 0.638 µM.
